Assay results as given in patent US20240067702A1, “LACTAM-MODIFIED P[…]” (DONGBAO PURPLE STAR (HANGZHOU) BIOPHARMACEUTICAL CO., LTD., priority 2020, published 2024).
*1 amine or outer side, *2 acyl side, *3 side chain or, on linkers, in order; H or OH if unused. Where a SMILES comes first, the peptide text is derived from it. Bridges are numbered along the chain shown (N, C = ends). Side-chain parts run from the residue outwards. [ ]: non-standard residue; d: D form. The star is where a group is joined. C20 diacid = O=C(O)CCCCCCCCCCCCCCCCCCC(=O)*; γGlu = O=C(O)[C@H](CCC(=O)[*:2])N[*:1]; AEEA = NCCOCCOCC(=O)O; Aib = CC(C)(N)C(=O)O

Assays:
[1] = target: T1, GLP-1R (Homo sapiens, UniProt P43220); assay: GLP-1R agonist activity test in vitro (cAMP assay); format: cell-based; conditions: GLP-IR Agonist Activity EC50 (−) 1% HSA, HEK293 host cell; without 1% HSA
T1 construct: host or cells: HEK293
Procedure: (§1) The cell strains were constructed by Shanghai WuXi AppTec.
(§2) The test compound was serially diluted 4-fold with 10 points. The initial concentration was 30 μM, and the dilution was completed with Bravo.
(§3) 1) 100 nL of the compound was transferred to OptiPlate-384 plate using Echo.
(§4) 7) The GLP-1R/GIPR cell concentration was diluted to 2.0*10^5/mL with the experimental buffer.
(§5) 8) […] of the diluted cell suspension was transferred into the OptiPlate-384 plate.
(§6) 9) The diluted cell suspension was incubated at room temperature for 30 minutes.
(§7) 2) 10 μL of cAMP detection reagent was added.
(§8) 3) The OptiPlate-384 plate was covered with TopSeal-A film and incubated at room temperature for 60 minutes.
(§9) TopSeal-A was removed and read in EnVision.

[2] = target: T2, GIPR (Homo sapiens, UniProt P48546); assay: GIPR agonist activity test in vitro (cAMP assay); format: cell-based; conditions: GIPR Agonist Activity EC50 (−) 1% HSA, CHO host cell; without 1% HSA
T2 construct: host or cells: CHO
T2 sequence (P48546 22-466): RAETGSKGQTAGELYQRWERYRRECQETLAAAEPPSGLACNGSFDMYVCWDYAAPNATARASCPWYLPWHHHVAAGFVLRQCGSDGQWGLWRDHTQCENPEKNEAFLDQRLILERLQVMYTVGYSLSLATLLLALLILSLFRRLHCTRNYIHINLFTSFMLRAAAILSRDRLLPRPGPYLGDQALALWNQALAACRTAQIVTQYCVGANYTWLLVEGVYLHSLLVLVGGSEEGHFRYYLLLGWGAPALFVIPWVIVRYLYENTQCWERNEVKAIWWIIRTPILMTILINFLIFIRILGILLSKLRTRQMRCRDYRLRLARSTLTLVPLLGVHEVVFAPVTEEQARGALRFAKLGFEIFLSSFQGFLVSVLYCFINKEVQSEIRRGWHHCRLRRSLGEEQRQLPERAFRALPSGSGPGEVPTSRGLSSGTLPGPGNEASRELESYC
Procedure: as §1, §2, §3, §4, §5, §6, §7, §8, §9

[3] = Plasma stability (PLS) test, human plasma; format: in vitro ADME; conditions: up to 120 min, read-out: PLS (H/M) T1/2, H; for half-life at 2 μM: pH 7.4, 37° C.
[4] = Kidney homogenate stability (BHS) test; format: in vitro ADME; conditions: normal mouse kidney homogenate, 37° C., read-out: BHS (T1/2 (min))
Procedure: To study the stability of the test compounds in normal mouse kidney homogenate.
1. Before the experiment, the frozen kidney homogenate was thawed in a 37° C. water bath.
2. Test compounds: 10 mM stock solution was diluted with DMSO to prepare 1 mM intermediate solution;
3. test compounds: 1 mM intermediate solution was diluted with DMSO to prepare 50 μM dosing solution;
4. at each time point (0, 10, 30, 60, 120, 180, 240 min), 100 μL of 4% H3PO4 and 800 μL of stop solution were added to precipitate the protein, and mixed thoroughly.
5. The samples were centrifuged at 4000 rpm for 10 min, and 100 μL of supernatant was taken from each well to the plate. The samples were shaken at 800 rpm for approximately 10 min before submitting for LC-MS/MS test.

T1 sequence (P43220 24-463): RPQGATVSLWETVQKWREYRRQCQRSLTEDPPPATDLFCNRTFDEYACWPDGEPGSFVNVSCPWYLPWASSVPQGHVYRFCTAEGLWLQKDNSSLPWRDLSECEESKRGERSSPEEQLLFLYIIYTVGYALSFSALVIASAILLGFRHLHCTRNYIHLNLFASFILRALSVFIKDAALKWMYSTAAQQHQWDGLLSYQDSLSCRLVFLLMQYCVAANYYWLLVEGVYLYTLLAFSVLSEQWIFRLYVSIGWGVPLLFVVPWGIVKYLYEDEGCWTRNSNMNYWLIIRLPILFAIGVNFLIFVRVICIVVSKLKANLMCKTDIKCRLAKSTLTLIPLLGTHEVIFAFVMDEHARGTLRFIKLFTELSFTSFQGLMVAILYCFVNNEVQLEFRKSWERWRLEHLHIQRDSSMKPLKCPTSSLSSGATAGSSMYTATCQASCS

SMILES | EC50 [1] [nM] | EC50 [2] [nM] | half-life ([3]; 2 μM, 37° C.) [h] | half-life ([4]; tissue homogenate) [min] | half-life at 2 μM [3] [h] | half-life [4] [min]
CC[C@H](C)[C@H](NC(=O)[C@H](CC(C)C)NC(=O)[C@H](Cc1c[nH]c2ccccc12)NC(=O)[C@@H]1CCC(=O)NCCCC[C@H](NC(=O)[C@H](CCC(N)=O)NC(=O)[C@H](C)NC(=O)[C@H](CCCCNC(=O)COCCOCCNC(=O)COCCOCCNC(=O)CC[C@H](NC(=O)CC[C@H](NC(=O)CCCCCCCCCCCCCCCCCCC(=O)O)C(=O)O)C(=O)O)NC(=O)[C@H](CCCCN)NC(=O)[C@H](CC(=O)O)NC(=O)[C@H](CC(C)C)NC(=O)C(C)(C)NC(=O)[C@@H](NC(=O)[C@H](CO)NC(=O)[C@H](Cc2ccc(O)cc2)NC(=O)[C@H](CC(=O)O)NC(=O)[C@H](CO)NC(=O)[C@@H](NC(=O)[C@H](Cc2ccccc2)NC(=O)[C@@H](NC(=O)CNC(=O)[C@H](CCC(=O)O)NC(=O)C(C)(C)NC(=O)[C@@H](N)Cc2ccc(O)cc2)[C@@H](C)O)[C@@H](C)O)[C@@H](C)CC)C(=O)N[C@@H](C)C(=O)N[C@@H](Cc2ccccc2)C(=O)N[C@@H](C(C)C)C(=O)N1)C(=O)N[C@@H](C)C(=O)NCC(=O)NCC(=O)N1CCC[C@H]1C(=O)N[C@@H](CO)C(=O)N[C@@H](CO)C(=O)NCC(=O)N[C@@H](C)C(=O)N1CCC[C@H]1C(=O)N1CCC[C@H]1C(=O)N1CCC[C@H]1C(=O)N[C@@H](CO)C(N)=O [WX-002] (H-Y[Aib]EGTFTSDYSI[Aib]LDKK([AEEA-AEEA-γGlu-γGlu-C20 diacid])AQKAFVEWLIAGGPSSGAPPPS-NH2; lactam 20-24) | 0.052 | 0.29 | > 4.82 | 20 | – | –
CC[C@H](C)[C@H](NC(=O)[C@H](CC(C)C)NC(=O)[C@H](Cc1c[nH]c2ccccc12)NC(=O)[C@@H]1CCC(=O)NCCCC[C@H](NC(=O)[C@H](CCC(N)=O)NC(=O)[C@H](C)NC(=O)[C@H](CCCCNC(=O)COCCOCCNC(=O)COCCOCCNC(=O)CC[C@H](NC(=O)CCCCCCCCCCCCCCCCCCC(=O)O)C(=O)O)NC(=O)[C@H](CCCCN)NC(=O)[C@H](CC(=O)O)NC(=O)[C@H](CC(C)C)NC(=O)C(C)(C)NC(=O)[C@@H](NC(=O)[C@H](CO)NC(=O)[C@H](Cc2ccc(O)cc2)NC(=O)[C@H](CC(=O)O)NC(=O)[C@H](CO)NC(=O)[C@@H](NC(=O)[C@H](Cc2ccccc2)NC(=O)[C@@H](NC(=O)CNC(=O)[C@H](CCC(=O)O)NC(=O)C(C)(C)NC(=O)[C@@H](N)Cc2ccc(O)cc2)[C@@H](C)O)[C@@H](C)O)[C@@H](C)CC)C(=O)N[C@@H](CCC(=O)O)C(=O)N[C@@H](Cc2ccccc2)C(=O)N[C@@H](C(C)C)C(=O)N1)C(=O)N[C@@H](C)C(=O)NCC(=O)NCC(=O)N1CCC[C@H]1C(=O)N[C@@H](CO)C(=O)N[C@@H](CO)C(=O)NCC(=O)N[C@@H](C)C(=O)N1CCC[C@H]1C(=O)N1CCC[C@H]1C(=O)N1CCC[C@H]1C(=O)N[C@@H](CO)C(N)=O [WX-005] (H-Y[Aib]EGTFTSDYSI[Aib]LDKK([AEEA-AEEA-γGlu-C20 diacid])AQKEFVEWLIAGGPSSGAPPPS-NH2; lactam 20-24) | 0.042 | 0.22 | – | – | > 4.82 | 21
CC[C@H](C)[C@H](NC(=O)[C@H](CC(C)C)NC(=O)[C@H](Cc1c[nH]c2ccccc12)NC(=O)[C@@H]1CCC(=O)NCCCC[C@H](NC(=O)[C@H](CCC(N)=O)NC(=O)[C@H](C)NC(=O)[C@H](CCCCNC(=O)COCCOCCNC(=O)COCCOCCNC(=O)CC[C@H](NC(=O)CCCCCCCCCCCCCCCCCCC(=O)O)C(=O)O)NC(=O)[C@H](CCCCN)NC(=O)[C@H](CC(=O)O)NC(=O)[C@H](CC(C)C)NC(=O)C(C)(C)NC(=O)[C@@H](NC(=O)[C@H](CO)NC(=O)[C@H](Cc2ccc(O)cc2)NC(=O)[C@H](CC(=O)O)NC(=O)[C@H](CO)NC(=O)[C@@H](NC(=O)[C@H](Cc2ccccc2)NC(=O)[C@@H](NC(=O)CNC(=O)[C@H](CCC(=O)O)NC(=O)C(C)(C)NC(=O)[C@@H](N)Cc2ccc(O)cc2)[C@@H](C)O)[C@@H](C)O)[C@@H](C)CC)C(=O)N[C@@H](C)C(=O)N[C@@H](Cc2ccccc2)C(=O)N[C@@H]([C@@H](C)CC)C(=O)N1)C(=O)N[C@@H](C)C(=O)NCC(=O)NCC(=O)N1CCC[C@H]1C(=O)N[C@@H](CO)C(=O)N[C@@H](CO)C(=O)NCC(=O)N[C@@H](C)C(=O)N1CCC[C@H]1C(=O)N1CCC[C@H]1C(=O)N1CCC[C@H]1C(=O)N[C@@H](CO)C(N)=O [WX-006] (H-Y[Aib]EGTFTSDYSI[Aib]LDKK([AEEA-AEEA-γGlu-C20 diacid])AQKAFIEWLIAGGPSSGAPPPS-NH2; lactam 20-24) | 0.051 | 0.45 | – | – | > 4.82 | 234
